How the values were obtained:
IDO1 in SKOV3 cells = target: T1, IDO1 in SKOV3 cells (Homo sapiens, UniProt P14902); assay: Cell-based IDO inhibitory activity in IFNγ-stimulated SKOV3 cells (NFK + kynurenine by LCMS); conditions: IFNγ 50 ng/ml, 200 uM L-tryptophan, 24 hours
T1 construct: SKOV3 cells (NCI, No. 0503405) which upregulate IDO1 after stimulation with IFNγ; host or cells: SKOV3 cells stimulated with IFNγ
Source text: 3) Testing Compounds for IDO/TDO Inhibitory Activity and Toxicity in Cell-Based Assays
SW48 cells (ATCC, CCL-231) are used to measure compounds for TDO inhibitory activity and are routinely maintained in DMEM high glucose/GlutaMAX™/pyruvate 90% (v/v), FCS 10% (v/v), Penicilin/streptomycin 1% (v/v). SKOV3 cells (NCI, No. 0503405) which upregulate IDO1 after stimulation with IFNγ are used to measure compounds for IDO inhibitory activity. SKOV3 cells are routinely maintained in RPMI 90% (v/v), FCS 10% (v/v), Penicilin/streptomycin 1% (v/v). SW48 or SKOV3 cells are seeded in 384 well plates at a density of 8000 cells in 45 ul per well or 4000 cells in 45 ul per well, respectively. Plates are incubated at 37° C./5% CO2 for 24 hours. On the next day, 10 ul compound in serial dilutions (tested concentration range 10 uM-40 nM) and 200 uM L-tryptophan are added (SKV03 receive in addition IFNγ at a final concentration of 50 ng/ml). After 24 hours of incubation at 37° C./5% CO2, 3 ul of the supernatant per well is transferred to 25 ul H2O per well in a 384 deep well plate and 25 ul of the supernatant per well is transferred to waste. The SKOV3 and SW48 cell plates with 25 ul supernatant per well remaining are used to measure viability (see below). The 384 deep well plate containing 3 ul supernatant and 25 ul H2O per well are further processed for LCMS: After the addition of 100 ul L-tryptophan-(indole-d5) (Sigma 615862) at 200 nM in methanol, the 384 deep well plates are centrifuged for 10 minutes at 3220×g at 4° C., 75 ul H2O is added per well and plates centrifuged again for 10 minutes at 3220×g at 4° C. N-formylkynurenine and kynurenine are quantified by LCMS, normalized to the internal standard L-tryptophan-(indole-d5) and the sum is calculated. Samples with 0.2% DMSO (0% effect) and a TDO/IDO inhibitor (100% effect) are used as control samples to set the parameters for the non-linear regression necessary for the determination of the IC50 for each compound. For each compound concentration the percentage of activity compared to 0% and 100% effect is calculated as average±STDEV (each concentration measured in duplicate). IC50 values and curves are generated with XLfit software (IDBS) using Dose-Response One Site model 203. The calculated IC50 values may fluctuate depending on the daily cellular assay performance. Fluctuations of this kind are known to those skilled in the art. When compounds are measured multiple times, mean values are given.

[1] = target: T2, Recombinant full-length human IDO1 (Homo sapiens, UniProt P14902); assay: IDO1 enzymatic assay (NFK quantified by LCMS); assay type: biochemical; conditions: 2 nM enzyme, 5 μM L-tryptophan, 30 min pre-incubation, pH6.5; mean if measured multiple times; read-out: hIDO activity (IC50 in nM)
T2 construct: Recombinant full-length human IDO1 with a N-terminal hexahistidine tag; hexahistidine (N); made in house; host or cells: E. coli
T2 sequence (P14902 whole entry): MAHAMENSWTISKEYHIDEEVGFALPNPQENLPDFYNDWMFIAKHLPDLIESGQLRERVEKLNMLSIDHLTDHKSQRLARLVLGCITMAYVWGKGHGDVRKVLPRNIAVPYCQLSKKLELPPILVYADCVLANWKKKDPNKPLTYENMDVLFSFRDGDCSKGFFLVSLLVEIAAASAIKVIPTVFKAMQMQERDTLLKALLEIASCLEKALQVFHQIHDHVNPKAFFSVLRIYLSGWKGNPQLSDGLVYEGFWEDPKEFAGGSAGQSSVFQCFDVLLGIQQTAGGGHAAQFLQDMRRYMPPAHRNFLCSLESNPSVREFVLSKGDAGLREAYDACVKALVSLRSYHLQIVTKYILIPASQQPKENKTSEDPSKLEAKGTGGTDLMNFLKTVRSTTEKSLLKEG
Description: 1) Testing Compounds for IDO Inhibitory Activity in an IDO1 Enzymatic Assay:
Recombinant full-length human IDO1 with a N-terminal hexahistidine tag expressed in E. coli and purified to homogeneity is incubated at a final concentration of 2 nM in assay buffer consisting of 37.5 mM phosphate buffer at pH6.5 supplemented with 10 mM ascorbic acid, 0.45 μM methylene blue, 50 U/ml catalase, 0.01% BSA, and 0.01% Tween 20 (protocol modified from Seegers et al, JBS 2014). Example compounds are serially diluted in DMSO, further diluted in phosphate buffer, and added to the enzyme at final concentrations ranging from 10 μM to 0.5 nM. The final DMSO concentration is 0.6%. Following a pre-incubation of 30 minutes at RT, the reaction is started by the addition of L-tryptophan at a final concentration of 5 μM in assay buffer. After 30 minutes of incubation at RT, 3 μL of the 20 μl reaction mixture are transferred to a 384 deep well plate containing 25 μL of deionized water. 100 μl of 200 nM L-Tryptophan-(indole-d5) in cold 100% methanol are added followed by a 10 minutes centrifugation at 3220×g at 4° C. An additional 75 μL of deionized water are then added followed by a 10 minutes centrifugation at 3220×g at 4° C. The product of the reaction N′-Formylkynurenine (NFK) is quantified by LCMS and normalized to the L-Tryptophan-(indole-d5) signal. Samples with 0.6% DMSO (0% effect) and a TDO/IDO inhibitor (100% effect) are used as control samples to set the parameters for the non-linear regression necessary for the determination of the half-maximal inhibitory concentration (IC50) for each compound. For each compound concentration the percentage of activity compared to 0% and 100% effect is calculated as average±STDEV (each concentration measured in duplicate). IC50 values and curves are generated with XLfit software (IDBS) using Dose-Response One Site model 203 (four parameter logistic curve model). The calculated IC50 values may fluctuate depending on the daily assay performance. Fluctuations of this kind are known to those skilled in the art. When compounds are measured multiple times, mean values are given.

[2] = target: T3, Recombinant human TDO comprising amino acids 19-407 (Homo sapiens, UniProt P48775); assay: TDO2 enzymatic assay (NFK quantified by LCMS); assay type: biochemical; conditions: 15 nM enzyme, 200 μM L-tryptophan, 30 min pre-incubation, pH7; mean if measured multiple times; read-out: hTDO activity (IC50 in nM)
T3 construct: human TDO comprising amino acids 19-407; hexahistidine (N); made in house; host or cells: E. coli
T3 sequence (P48775 19-406 limits assumed): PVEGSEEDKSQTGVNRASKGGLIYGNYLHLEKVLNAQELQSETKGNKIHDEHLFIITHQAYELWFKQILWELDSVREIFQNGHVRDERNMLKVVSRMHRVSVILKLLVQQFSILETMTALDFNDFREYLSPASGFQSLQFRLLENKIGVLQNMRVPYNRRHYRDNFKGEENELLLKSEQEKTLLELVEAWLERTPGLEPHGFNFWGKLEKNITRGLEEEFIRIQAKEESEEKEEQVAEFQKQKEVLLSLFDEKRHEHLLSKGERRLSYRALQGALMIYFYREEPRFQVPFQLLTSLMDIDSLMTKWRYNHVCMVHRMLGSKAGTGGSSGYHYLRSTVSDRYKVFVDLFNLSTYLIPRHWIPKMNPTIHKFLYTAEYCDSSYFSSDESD
Description: 2) Testing Compounds for TDO Inhibitory Activity in a TDO2 Enzymatic Assay:
Recombinant human TDO comprising amino acids 19-407 with a N-terminal hexahistidine tag expressed in E. coli and purified to homogeneity is incubated at a final concentration of 15 nM in assay buffer consisting of 75 mM phosphate buffer at pH7 supplemented with 100 μM ascorbic acid, 50 U/ml Catalase, 0.01% BSA, and 0.01% Tween 20 (protocol modified from Seegers et al, JBS 2014). Example compounds are serially diluted in DMSO, further diluted in phosphate buffer, and added to the reaction mixture at final concentrations ranging from 10 μM to 0.5 nM. The final DMSO concentration is 0.6%. Following a pre-incubation of 30 minutes at RT, the reaction is started by the addition of L-tryptophan at a final concentration of 200 μM in assay buffer. After 30 minutes of incubation at RT, 3 μL of the reaction mixture are transferred to a 384 deep well plate containing 25 μL of deionized water. 100 μl of 200 nM L-Tryptophan-(indole-d5) in cold 100% methanol are added followed by a 10 minutes centrifugation at 3220×g at 4° C. An additional 75 μL of deionized water are then added followed by a 10 minutes centrifugation at 3220×g at 4° C. The product of the reaction N′-Formylkynurenine (NFK) is quantified by LCMS and normalized to the L-Tryptophan-(indole-d5) signal. Samples with 0.6% DMSO (0% effect) and a TDO/IDO inhibitor (100% effect) are used as control samples to set the parameters for the non-linear regression necessary for the determination of the half-maximal inhibitory concentration (IC50) for each compound. For each compound concentration the percentage of activity compared to 0% and 100% effect is calculated as average±STDEV (each concentration measured in duplicate). IC50 values and curves are generated with XLfit software (IDBS) using Dose-Response One Site model 203 (four parameter logistic curve model). The calculated IC50 values may fluctuate depending on the daily assay performance. Fluctuations of this kind are known to those skilled in the art. When compounds are measured multiple times, mean values are given.

T1 sequence (P14902 whole entry): as the sequence (P14902 whole entry) above

Structure (SMILES) | IC50 (IDO1 in SKOV3 cells) [nM] | IC50 [1] [nM] | IC50 [2] [nM]
COc1ccc(-n2cc([C@H](O)c3c(C4CC4)ncc4cncn34)nn2)cc1Br [Example 23, (R)-[1-(3-Bromo-4-methoxy-phenyl)-1H-[1,2,3]triazol-4-yl]-(6-cyclopropyl-imidazo[1,5-a]pyrazin-5-yl)-methanol] | 51.9 | 9.61 | –
OC(c1cn(-c2ccccc2)nn1)c1c(C2CC2)ncc2cncn12 (racemic) [Example 3, rac-(6-Cyclopropyl-imidazo[1,5-a]pyrazin-5-yl)-(1-phenyl-1H-[1,2,3]triazol-4-yl)-methanol] | 470 | 41 | > 10200
COC(=O)Nc1ccc(-n2cc(C(O)c3c(C4CC4)ncc4cncn34)nn2)cc1 (racemic) [Example 12, rac-(4-{4-[(6-Cyclopropyl-imidazo[1,5-a]pyrazin-5-yl)-hydroxy-methyl]-[1,2,3]triazol-1-yl}-phenyl)-carbamic acid methyl ester] | 73.9 | 21.5 | > 10200
O[C@@H](c1cn(-c2ccc(N3CCC34COC4)cc2)nn1)c1c(C2CC2)ncc2cncn12 [Example 46, (R)-(6-Cyclopropyl-imidazo[1,5-a]pyrazin-5-yl)-{1-[4-(6-oxa-1-aza-spiro[3.3]hept-1-yl)-phenyl]-1H-[1,2,3]triazol-4-yl}-methanol] | 356 | 15.1 | > 10200
Cc1c(C(O)c2c(Cl)ccc3cncn23)nnn1-c1ccc(O)c(Cl)c1 (racemic) [Example 43, rac-2-Chloro-4-{4-[(6-chloro-imidazo[1,5-a]pyridin-5-yl)-hydroxy-methyl]-5-methyl-[1,2,3]triazol-1-yl}-phenol] | 64.2 | 3.88 | 832
Cc1c(C(O)c2c(Cl)ccc3cncn23)nnn1-c1ccc(O)c(F)c1 (racemic) [Example 48, rac-4-{4-[(6-Chloro-imidazo[1,5-a]pyridin-5-yl)-hydroxy-methyl]-5-methyl-[1,2,3]triazol-1-yl}-2-fluoro-phenol] | 29 | 2.29 | 1460
COc1cc(F)c(-n2cc([C@H](O)c3c(Cl)ccc4cncn34)nn2)cc1F [Example 31, (R)-(6-Chloro-imidazo[1,5-a]pyridin-5-yl)-[1-(2,5-difluoro-4-methoxy-phenyl)-1H-[1,2,3]triazol-4-yl]-methanol] | 9.2 | 1.13 | > 10200
COc1ccc(-n2cc([C@H](O)c3c(C4CC4)ncc4cncn34)nn2)cc1F [Example 21, (R)-(6-Cyclopropyl-imidazo[1,5-a]pyrazin-5-yl)-[1-(3-fluoro-4-methoxy-phenyl)-1H-[1,2,3]triazol-4-yl]-methanol] | 33.2 | 8.24 | > 10200
COc1cc(F)c(-n2nnc(C(O)c3c(Cl)ccc4cncn34)c2C)cc1Cl (racemic) [Example 39, rac-[1-(5-Chloro-2-fluoro-4-methoxy-phenyl)-5-methyl-1H-[1,2,3]triazol-4-yl]-(6-chloro-imidazo[1,5-a]pyridin-5-yl)-methanol] | 6.94 | 5.26 | 7940
COc1ccc(-n2nnc(C(O)c3c(Cl)ccc4cncn34)c2C)cc1 (racemic) [Example 20, rac-(6-Chloro-imidazo[1,5-a]pyridin-5-yl)-[1-(4-methoxy-phenyl)-5-methyl-1H-[1,2,3]triazol-4-yl]-methanol] | 14.5 | 2.78 | 5260
CCc1ccc2cncn2c1C(O)c1cn(-c2ccc(OC)cc2)nn1 (racemic) [Example 34, rac-(6-Ethyl-imidazo[1,5-a]pyridin-5-yl)-[1-(4-methoxy-phenyl)-1H-[1,2,3]triazol-4-yl]-methanol] | 14.5 | 2.97 | > 10200
OC(c1cn(-c2ccc(OCC3(F)COC3)cc2)nn1)c1c(C2CC2)ncc2cncn12 (racemic) [Example 16, rac-(6-Cyclopropyl-imidazo[1,5-a]pyrazin-5-yl)-{1-[4-(3-fluoro-oxetan-3-ylmethoxy)-phenyl]-1H-[1,2,3]triazol-4-yl}-methanol] | 94.6 | 33.2 | > 10200
CCc1ncc2cncn2c1C(O)c1cn(-c2cc(F)c(OC)cc2F)nn1 (racemic) [Example 32, rac-[1-(2,5-Difluoro-4-methoxy-phenyl)-1H-[1,2,3]triazol-4-yl]-(6-ethyl-imidazo[1,5-a]pyrazin-5-yl)-methanol] | 70.2 | 14.3 | > 10200
CC(C)(O)COc1ccc(-n2cc([C@H](O)c3c(C4CC4)ncc4cncn34)nn2)cc1F [Example 29, 1-(4-{4-[(R)-(6-Cyclopropyl-imidazo[1,5-a]pyrazin-5-yl)-hydroxy-methyl]-[1,2,3]triazol-1-yl}-2-fluoro-phenoxy)-2-methyl-propan-2-ol] | 29.9 | 7.74 | > 10200
